Literature values, collected in US7611833B2, “Yeast genes that affect viral replication” (priority 2001, dated 2009).
Like-named read-outs stand apart in the source and are kept apart here.

How the values were obtained:
poliovirus [1] = tested on: poliovirus
poliovirus [2] = tested on: poliovirus; remark: listed apart in the source
poliovirus [3] = tested on: poliovirus; remark: listed apart in the source
HeLa cells = HeLa cells treated with oleic acid

Structure (SMILES)	RNA replication by poliovirus (poliovirus [1])	RNA replication by the alphavirus SFV (alphavirus SFV)	In vitro translation (poliovirus [2])	Poliovirus RNA replication (poliovirus [2])	Poliovirus RNA replication (poliovirus [3])	Synthesis of lipids (HeLa cells)
C/C=C/C/C=C/CCC(=O)[C@H]1O[C@H]1C(N)=O [Cerulenin]	inhibits RNA replication	inhibits RNA replication				
CCCCCCCC/C=C\CCCCCCCC(=O)O [oleic acid]			inhibited in vitro translation	disrupts poliovirus RNA replication	disrupts poliovirus RNA replication	major changes in the synthesis of many lipids
